# Experimental data: patent US12281304B2, “Compositions and methods for treating and preventing muscular disorders and dystrophies, steroid side effects, and inflammation” (Children's National Medical Center, priority 2018, dated 2025)
# System: miRNAs in diaphragm muscle of mdx mice
# Assay: TaqMan low-density array (TLDA) miRNA profiling of diaphragm, discovery set (prophylactic mdx trial)
# Assay type: in vivo, mouse
# Conditions: mdx diaphragm, vs untreated mdx; Pred 5 mg/kg, Vam 15 mg/kg
# Text: Archival muscle samples (diaphragm) from two separate preclinical studies were obtained, with each trial showing a significant benefit from both prednisolone and vamorolone drug treatments (23). Prednisolone was used because it is the active form of prednisone, the current DMD standard of care. The first, “discovery set” of diaphragm muscles was from a prophylactic trial design where 2-week old (postnatal day 15) mdx or wild type control mice received oral dosing for 6 weeks with vehicle (cherry syrup), prednisolone (5 mg/kg), or vamorolone (15 mg/kg) as previously reported (23). The second, “validation set” of diaphragm muscles was from an extended trial in older mice where mdx or wild type mice were subjected to treadmill running to unmask mild phenotypes. Mice in this validation set were treated with either vehicle, prednisolone (5 mg/kg) or vamorolone (45 mg/kg) for four months beginning at two months of age (23). At the endpoint of each trial, diaphragm muscles were harvested and frozen in liquid nitrogen-cooled isopentane.
# We extracted total RNA from 5 diaphragm muscles per treatment group in the discovery set of samples from 8-week old mice. RNA was extracted using a modified TRIzol protocol with isopropanol precipitation at −20° C. overnight. This RNA was reverse transcribed to cDNA using a High Capacity cDNA Reverse Transcription Kit with RNase Inhibitor (ThermoFisher; Carlsbad, Calif.), with miRNA-specific Megaplex RT Primers, Rodent Pools Set version 3.0 (ThermoFisher; Carlsbad, Calif.). Levels of each of the miRNAs were profiled in the discovery set using TAQMAN Array Rodent MiRNA A+B Cards Set v3.0 (ThermoFisher; Carlsbad, Calif.).
# In the discovery set experiments, levels of each miRNA were quantified in TaqMan low-density arrays using ThermoFisher Cloud software with the Relative Quantification Application (ThermoFisher; Carlsbad, Calif.) tool. Data was analyzed by ANOVA with post-hoc comparison of each group to the mdx vehicle-treated group. […] A P-value of P≤0.05 was set as the significance threshold, without adjustment for multiple comparisons. To reduce false-positive discovery in this setting, an evidence-based approach was used to identify efficacy associated miRNAs where 1) results from the multiple groups were cross-referenced, and 2) all candidate miRNAs identified in this discovery set were then assayed in a separate validation set of mice. For the validation set experiments, levels of each individual miRNA were assayed in samples from a second, independent preclinical trial in adult mdx mice. Data from individual TaqMan Assays was quantified using QuantStudio Real-Time PCR version 1.3 software (Applied Biosystems; Foster City, Calif.). The levels of all miRNAs were normalized to the geometric mean of multiple control genes (60, 70). Comparison of groups was made by ANOVA with Holm-Sidak post-hoc test comparing each group to mdx vehicle.
# To visualize behavior of miRNAs within individual mice for each group, heat map images were generated. Heat maps were generated using Rq values of TLDA array data exported from the Relative Quantification Application of the ThermoFisher Cloud software (ThermoFisher; Carlsbad, Calif.) tool. Heat maps of miRNA expression were produced using Hierarchical Clustering Explorer Version 3.5 (at www.cs.umd.edu/hcil/multi-cluster/) produced by the Human Computer Interaction Laboratory (University of Maryland; College Park, Md.).
# To examine miRNA expression TaqMan low density qPCR array cards were used to profile approximately 750 miRNAs within diaphragm muscle from a discovery set of mice. Samples for this experiment came from a trial that utilized a prophylactic approach (23). Briefly, mdx mice undergo a stage of peak severity characterized by widespread inflammation and necrosis from approximately 3-8 weeks of age, followed by a recovery stage where mice show milder phenotypes (25). […]
smiles,measurement,value
C[C@@H]1C[C@H]2[C@@H]3CCC4=CC(=O)C=C[C@]4(C)C3=CC[C@]2(C)[C@@]1(O)C(=O)CO [vamorolone],Rq mmu-miR-215-001200,0.495
same,Rq mmu-miR-218-000521,0.759
same,Rq mmu-miR-221-000524,0.674
same,Rq mmu-miR-222-002276,0.733
same,Rq mmu-miR-223-002295,0.78
same,Rq mmu-miR-296-5p-000527,0.882
same,Rq mmu-miR-301a-000528,0.77
same,Rq mmu-miR-301b-002600,0.917
same,Rq mmu-miR-322-001076,0.785
same,Rq mmu-miR-324-3p-002509,0.748
same,Rq mmu-miR-324-5p-000539,0.946
same,Rq mmu-miR-328-000543,0.858
same,Rq mmu-miR-335-3p-002185,1.249
same,Rq mmu-miR-335-5p-000546,0.76
same,Rq mmu-miR-337-3p-002532,1.078
same,Rq mmu-miR-338-3p-002252,0.689
same,Rq mmu-miR-339-5p-002257,0.929
same,Rq mmu-miR-340-3p-002259,0.75
same,Rq mmu-miR-340-5p-002258,0.726
same,Rq mmu-miR-342-3p-002260,0.677
same,Rq mmu-miR-342-5p-002527,0.644
same,Rq mmu-miR-345-5p-002528,0.808
same,Rq mmu-miR-350-002530,0.797
same,Rq mmu-miR-362-3p-002616,0.902
same,Rq mmu-miR-362-5p-002614,1.469
same,Rq mmu-miR-369-3p-000557,0.963
same,Rq mmu-miR-369-5p-001021,1.023
same,Rq mmu-miR-370-002275,1.146
same,Rq mmu-miR-376a#-002482,0.985
same,Rq mmu-miR-376a-001069,0.991
same,Rq mmu-miR-376b#-002451,0.717
same,Rq mmu-miR-376b-002452,1.153
same,Rq mmu-miR-376c-002450,0.931
same,Rq mmu-miR-379-001138,0.987
same,Rq mmu-miR-380-5p-002601,1.243
same,Rq mmu-miR-381-000571,1.288
same,Rq mmu-miR-382-000572,1.081
same,Rq mmu-miR-383-001767,0.272
same,Rq mmu-miR-384-5p-002602,0.727
same,Rq mmu-miR-409-3p-002332,1.266
same,Rq mmu-miR-410-001274,1.158
same,Rq mmu-miR-411-001610,1.083
same,Rq mmu-miR-431-001979,1.358
same,Rq mmu-miR-433-001028,1.407
same,Rq mmu-miR-434-5p-002581,1.208
same,Rq mmu-miR-450a-5p-002303,0.862
same,Rq mmu-miR-455-002455,0.607
same,Rq mmu-miR-467F-002886,0.581
same,Rq mmu-miR-467a-002587,0.763
same,Rq mmu-miR-467c-002517,0.844
same,Rq mmu-miR-483#-002560,1.386
same,Rq mmu-miR-486-001278,0.988
same,Rq mmu-miR-487b-001285,1.133
same,Rq mmu-miR-489-001302,0.942
same,Rq mmu-miR-491-001630,0.842
same,Rq mmu-miR-493-002519,1.057
same,Rq mmu-miR-494-002365,0.988
same,Rq mmu-miR-495-001663,0.897
same,Rq mmu-miR-497-001346,0.652
same,Rq mmu-miR-500-002606,0.878
same,Rq mmu-miR-501-3p-001651,1.158
same,Rq mmu-miR-503-002456,1.115
same,Rq mmu-miR-511-002549,0.477
same,Rq mmu-miR-532-3p-002355,1.069
same,Rq mmu-miR-532-5p-001518,1.043
same,Rq mmu-miR-540-3p-001310,0.746
same,Rq mmu-miR-541-002562,1.043
same,Rq mmu-miR-542-3p-001284,0.82
same,Rq mmu-miR-542-5p-002563,1.044
same,Rq mmu-miR-543-001298,1.176
same,Rq mmu-miR-543-002376,0.918
same,Rq mmu-miR-544-002550,0.952
same,Rq mmu-miR-574-3p-002349,0.692
same,Rq mmu-miR-652-002352,0.636
same,Rq mmu-miR-665-002607,1.203
same,Rq mmu-miR-669a-001683,0.551
same,Rq mmu-miR-673-3p-002449,1.148
same,Rq mmu-miR-673-001954,1.475
same,Rq mmu-miR-674#-001956,0.765
same,Rq mmu-miR-674-002021,0.892
same,Rq mmu-miR-675-3p-001941,1.14
same,Rq mmu-miR-682-001666,0.675
same,Rq mmu-miR-690-001677,0.861
same,Rq mmu-miR-706-001641,0.664
same,Rq mmu-miR-708-002341,0.51
same,Rq mmu-miR-720-001629,0.957
same,Rq mmu-miR-802-002029,0.126
same,Rq mmu-miR-805-002045,1.128
same,Rq mmu-miR-1274a-121150_mat,1.244
same,Rq mmu-miR-1941-3p-121130_mat,1.459
same,Rq mmu-miR-1943-121174_mat,1.268
same,Rq mmu-miR-1944-121189_mat,1.023
same,Rq mmu-miR-2146-241082_mat,0.413
same,Rq mmu-miR-30d-000420,0.829
same,Rq rno-miR-1-002064,0.956
same,Rq rno-miR-7#-001338,0.799
same,Rq rno-miR-7a#-002062,0.887
same,Rq rno-miR-20b-001326,0.711
same,Rq rno-miR-29c#-001818,0.93
same,Rq rno-miR-204#-002076,0.813
same,Rq rno-miR-224-000599,0.837
same,Rq rno-miR-345-3p-002061,0.999
same,Rq rno-miR-351-002063,1.376
same,Rq rno-miR-379#-002081,1.014
same,Rq rno-miR-381-001322,1.013
same,Rq rno-miR-489-001353,0.844
same,Rq rno-miR-664-001323,0.771
